Assay results published in patent US20230167408A1, “METHODS AND COMPOSITIONS FOR MAINTAINING AND EXPANDING HEMATOPOIETIC STEM CELLS” (Trailhead Biosystems Inc., priority 2021, published 2023).
Entries after “also recorded” stand apart in the source; their conditions may differ.

Experiments:
Assay type in all cases: cell-based, human
[1] = tested on: CD34+ population of cells isolated from cord blood; assay: HD-DoE effector experiments, gene expression modeling after 3-day treatment; conditions: for factor contribution (impact) on expression of CRHBP: 8-factor experiment tropoelastin, lipid mixture, propionate, biotin, geltrex, N-acetyl cysteine, prostaglandin E2, VPA, FIG. 3/4; for factor contribution on expression of CRHBP: Yhhu 3792, fibronectin, TPCA-1, GW9662, Z-vad-fmk, VEGF, FIG. 5; for factor contribution on expression of MEG3: same 8-factor experiment optimized for maximum MEG3, FIG. 2
Excerpt: This example utilizes a method of High-Dimensional Design of Experiments (HD-DoE), as previously described in Bukys et al. (2020) Iscience 23:101346. The method employs computerized design geometries to simultaneously test multiple process inputs and offers mathematical modeling of a deep effector/response space. The method allows for finding combinatorial signaling inputs that control a complex process, such as during cell differentiation. It allows testing of multiple plausible critical process parameters, as such parameters impact output responses, such as gene expression. Because gene expression provides hallmark features of the phenotype of, for example, a human cell, the method can be applied to identify, and understand, which signaling pathways control cell fate. In the current example, the HD-DOE method was applied with the intent to find conditions for expansion and maintenance of HSCs.
Specifically, to develop the HSC recipe, the impact of agonists and antagonists of multiple signaling pathways (herein called effectors) were tested on expression of two sets of 53 pre-selected genes after a 3-day treatment. Specific genes in the measured subset are highly enriched in HSC and include CRHBP, MLLT3, MEG3, MECOM, HOXA5 and GATA2. The effectors chosen include small molecules or proteins, some of which are used during in vitro expansion of HSC.
To test the effectors, experiments with at least 8 factors were designed that can assess the response of cells to 48 or more different combinations of effectors in a range of concentrations. To analyze the models, we focused on expression of genes that are either expressed or enriched in primitive HSC including CRHBP, GATA2, MLLT3 and MEG3. The impact of each effector on gene expression level is defined by a parameter called factor contribution that is calculated for each effector during the modeling. All the experiments were conducted using a CD34^+ population of cells isolated from cord blood.
To identify the recipe for HSC expansion, cells were treated with various effectors for 3 days in media containing stem cell factor (SCF) and thrombopoietin (TPO) and the gene expression of cells was modeled. […] Additionally, on this model we observed NOTCH1 upregulation and MPO downregulation. […] Previous studies have shown that NOTCH1 activation increases HSC self-renewal in vivo (Stier et al. (2002) Blood 99:2369-78).
To further improve the recipe for HSC maintenance and expansion, additional HD-DoE experiments were performed. […] The goal was to evaluate further factors to possibly increase the complexity of the signaling inputs to attain effective fate control. As previously, we focused on expression of HSC enriched genes mentioned earlier. An 8-factor experiment was performed, testing tropoelastin, lipid mixture, propionate, biotin, geltrex, N-acetyl cysteine, prostaglandin E2, and VPA. Similar to the previous experiment, CD34^+ cells were treated with 48 conditions of combinations of the factors for 3 days and gene expression analysis and modeling was performed.
To further improve the recipe for HSC maintenance and expansion, additional HD-DoE experiments were performed. Another 8-factor experiment was performed consisting of LPA, Yhhu 3792, fibronectin, TPCA-1, GW9662, Z-vad-fmk, VEGF and activin A. Similarly to the previous experiment, CD34^+ cells were treated with 48 conditions of combinations of the factors for 3 days and then gene expression analysis experiments were conducted.

[2] = tested on: CD34+ population of cells isolated from cord blood; assay: Factor criticality analysis (dynamic profile analysis) of HSC expansion recipe; design: GATA2 expression level / MEG3 expression level / CRHBP expression level: unit not given here
Excerpt: In this example, to assess the impact of elimination of each validated factor identified as described in Example 1, dynamic profile analysis was used and compared the expression level of genes of interest in the absence of each finalized factor while others are kept present. […] The results of the criticality analysis for the factors FICZ, LPA, Vit. C and Activin A are shown in FIG. 6A-B. The results of the criticality analysis for VPA are shown in FIG. 7A-B. The results of the criticality analysis for Yhhu 3792 are shown in and FIG. 8A-B.
For the HSC expansion recipe, each of the six finalized factors were removed while other five factors were present and the expression levels of GATA2, HOXA5, CRHBP was assessed compared to the presence of all […]. Because SCF and TPO are cytokines impacting cell growth and survival, our recipe included these cytokines as well. When FICZ was removed, values for GATA2 expression decreased from 642 to 512, while HOXA5 and MEG3 expression was unchanged. […] Removal of Vit.C decreased the level of MEG3 from 82 to 53. Activin A is a critical factor for MEG3, since its removal decreases MEG3 levels from 81 to 40.

CD34+ cells = assay: Culture of CD34+ cells in the presence of commonly used cytokines
Procedure: To further validate the HSC culture recipe described in Example 1, CD34+ cord blood derived cells were grown for 7 days in media comprising the ingredients shown in Table 1 and flow cytometry analysis was used to assess markers of the LT-HSC state. Markers tested included Lineage (CD3, CD14, CD16, CD19, CD20, CD56), CD34, CD38, CD45RA and CD90. Additionally, cells were grown in media with SCF and TPO as a control, commonly used by others to promote HSC expansion. […] 100,000 cells were plated for each condition.

[3] = 8-factor experiment LPA, FICZ, Pyrintegrin, Laminin521, G0693, Vit.C, G-SCF, activin A, 3 days, media with SCF and TPO, FIG. 1/2
[4] = named factor removed, other factors present
[5] = 8-factor experiment LPA, activin A, 3 days
[6] = 8-factor experiment with tropoelastin ... VPA
[7] = 8-factor experiment with tropoelastin ... VPA optimized for maximum GATA2, FIG. 4

## O=Cc1c2c(cc3c1=Nc1ccccc1-3)=Nc1ccccc1-2 [FICZ, 6-Formylindolo[3,2-b]carbazole]
[1]; [3]
  factor contribution (impact) on expression of GATA2: 21
[1]; 8-factor experiment LPA, FICZ, Pyrintegrin, Laminin521, G0693, Vit.C, G-SCF, activin A, 3 days, media with SCF and TPO, FIG. 1/2, listed as FCIZ
  factor contribution (impact) on expression of GATA2: positive impact
[2]; all finalized factors present
  GATA2 expression level: 642
[2]; [4]
  GATA2 expression level: 512
  HOXA5 expression level: unchanged
  MEG3 expression level: unchanged

## CC(=O)N[C@@H](CS)C(=O)O [N-acetyl cysteine]
[1]; 3 days
  factor contribution (impact) on expression of CRHBP: < 1

## CCC(=O)O [Propionate, propionate]
[1]; 3 days
  factor contribution (impact) on expression of CRHBP: 8

## CCCC(CCC)C(=O)O [VPA, Valproic acid]
[1]; 8-factor experiment with tropoelastin ... VPA, FIG. 4
  impact on expression of MEG3: positive impact
[2]; all finalized factors present
  CRHBP expression level: 285
  MEG3 expression level: 106
[2]; [4]
  CRHBP expression level: 138
  GATA2 expression level: reduced
  MEG3 expression level: 52

## COc1cccc(Oc2cccc3nc(Nc4ccc(C(C)C)cc4)nc(N)c23)c1 [Yhhu 3792]
[1]; [5]
  factor contribution on expression of CRHBP: 19
[2]; all finalized factors present
  CRHBP expression level: 202
[2]; [4]
  CRHBP expression level: 169

## O=C(O)CCCC[C@@H]1SC[C@@H]2NC(=O)N[C@@H]21 [biotin]
[1]; 3 days
  factor contribution (impact) on expression of CRHBP: 5

## CCCCC[C@H](O)/C=C/[C@H]1[C@H](O)CC(=O)[C@@H]1C/C=C\CCCC(=O)O [prostaglandin E2]
[1]; [6]
  effect of treatment on other HSC enriched genes: downregulates
[1]; [7]
  factor contribution (impact) on expression of GATA2: 25

## IL6: commonly used cytokine to expand HSC
CD34+ cells
  lineage bias of CD34+ cells cultured in the presence of the cytokine: induction of a myeloid bias

## L-ascorbic acid phosphate sesquimagnesium salt hydrate [Vit.C]
[1]; 8-factor experiment LPA, FICZ, Pyrintegrin, Laminin521, G0693, Vit.C, G-SCF, activin A, 3 days, media with SCF and TPO, FIG. 1/2, hydrate
  factor contribution (impact) on expression of GATA2: 12
[1]; 8-factor experiment LPA, FICZ, Pyrintegrin, Laminin521, G0693, Vit.C, G-SCF, activin A, 3 days, media with SCF and TPO, FIG. 1/2, listed as Vit. C, hydrate
  factor contribution (impact) on expression of GATA2: positive impact
[1]
  factor contribution on expression of MEG3: 16
[2]; all finalized factors present
  MEG3 expression level: 82
[2]; [4]
  MEG3 expression level: 53

## fibronectin
[1]; [5]
  factor contribution on expression of CRHBP: 18

## lysophosphatidic acid [LPA]
[1]; [5]
  factor contribution on expression of CRHBP: 8
[2]; all finalized factors present
  GATA2 expression level: 644
[2]; [4]
  GATA2 expression level: 525

B1: G-CSF: commonly used cytokine to expand HSC (protein, UniProt P09919 31-207, looked up)
Granulocyte …: TPLGPASSLPQSFLLKCLEQVRKIQGDGAALQEKLVSECATYKLCHPEELVLLGHSLGIPWAPLSSCPSQALQLAGCLSQLHSGLFLYQGLLQALEGISPELGPTLDTLQLDVADFATTIWQQMEELGMAPALQPTQGAMPAFASAFQRRAGGVLVASHLQSFLEVSYRVLRHLAQP
CD34+ cells
  lineage bias of CD34+ cells cultured in the presence of the cytokine: induction of a myeloid bias

B2: Activin A: TGFb pathway agonist (protein, UniProt P08476 311-426, looked up)
Inhibin beta A chain: GLECDGKVNICCKKQFFVSFKDIGWNDWIIAPSGYHANYCEGECPSHIAGTSGSSLSFHSTVINHYRMRGHSPFANLKSCCVPTKLRPMSMLYYDDGQNIIKKDIQNMIVEECGCS
modifications: Inhibin beta A chain
notes: TGFb pathway agonist
[1]; [3]
  factor contribution (impact) on expression of GATA2: modest; also recorded: positive impact
[1]; [5]
  factor contribution on expression of CRHBP: 26
[1]
  factor contribution on expression of MEG3: 23
[2]; all finalized factors present
  MEG3 expression level: 81
[2]; [4]
  GATA2 expression level: positive impact
  HOXA5 expression level: positive impact
  MEG3 expression level: 40

B3: tropoelastin: effector tested in the 8-factor experiment (protein, UniProt P15502 27-786, looked up)
Elastin: GGVPGAIPGGVPGGVFYPGAGLGALGGGALGPGGKPLKPVPGGLAGAGLGAGLGAFPAVTFPGALVPGGVADAAAAYKAAKAGAGLGGVPGVGGLGVSAGAVVPQPGAGVKPGKVPGVGLPGVYPGGVLPGARFPGVGVLPGVPTGAGVKPKAPGVGGAFAGIPGVGPFGGPQPGVPLGYPIKAPKLPGGYGLPYTTGKLPYGYGPGGVAGAAGKAGYPTGTGVGPQAAAAAAAKAAAKFGAGAAGVLPGVGGAGVPGVPGAIPGIGGIAGVGTPAAAAAAAAAAKAAKYGAAAGLVPGGPGFGPGVVGVPGAGVPGVGVPGAGIPVVPGAGIPGAAVPGVVSPEAAAKAAAKAAKYGARPGVGVGGIPTYGVGAGGFPGFGVGVGGIPGVAGVPGVGGVPGVGGVPGVGISPEAQAAAAAKAAKYGAAGAGVLGGLVPGAPGAVPGVPGTGGVPGVGTPAAAAAKAAAKAAQFGLVPGVGVAPGVGVAPGVGVAPGVGLAPGVGVAPGVGVAPGVGVAPGIGPGGVAAAAKSAAKVAAKAQLRAAAGLGAGIPGLGVGVGVPGLGVGAGVPGLGVGAGVPGFGAGADEGVRRSLSPELREGDPSSSQHLPSTPSSPRVPGALAAAKAAKYGAAVPGVLGGLGALGGVGIPGGVVGAGPAAAAAAAKAAAKAAQFGLVGAAGLGGLGVGGLGVPGVGGLGGIPPAAAAKAAKYGAAGLGGVLGGAGQFPLGGVAARPGFGLSPIFPGGACLGKACGRKRK
[1]; [6]
  effect of treatment on other HSC enriched genes: downregulates
[1]; [7]
  factor contribution (impact) on expression of GATA2: 17
